CCC(C)n1ncn(-c2ccc(N3CCN(c4ccc(OC[C@H]5CO[C@](Cn6cncn6)(c6ccc(Cl)cc6Cl)O5)cc4)CC3)cc2)c1=O (mixture of isomers)
solubility (mole fraction)
Details	283.15 K	288.15 K	293.15 K	298.15 K	303.15 K	308.15 K	313.15 K	318.15 K	323.15 K
in DMSO	0.000184	0.000237	0.000309	0.000391	0.000469	0.000579	0.000707	0.000888	0.00107
in ethanol	6.88e-06	9.34e-06	1.26e-05	1.66e-05	2.16e-05	2.83e-05	3.73e-05	5.03e-05	6.36e-05
in isopropanol	8.3e-06	1.04e-05	1.3e-05	1.57e-05	2.02e-05	2.48e-05	3.02e-05	3.65e-05	4.37e-05
in methanol	1.64e-05	2.14e-05	2.81e-05	3.7e-05	4.9e-05	6.17e-05	7.78e-05	9.7e-05	0.00012
in water	4.17e-09	6.55e-09	1.03e-08	1.55e-08	2.6e-08	3.69e-08	5.55e-08	8.36e-08	1.21e-07

— BigSolDB 2.1
